Counter-ions that a name gives are not always drawn. Marks after values point to notes of the source that are not given here.
Tested on: Experimental autoimmune uveitits (EAU)
Experiment: Experimental autoimmune uveitits (EAU) test in rats
Type: in vivo, LEWIS rats
Settings: for EAU 1st: Day of first signs of EAU (mean±SD) / EAU 10: Incidence of EAU on day 10 (affected animals/animals per group) / EAU POS: Number of EAU positive rats (affected animals/animals per group until end of the study) / SCORE MAX DAY: day of maximum score / SCORE MAX SCORE: Maximum score (mean of both eye lesions±SD): oral once daily; for course and intensity of the disease compared with placebo controls: oral, 0.1 mg/kg compound of formula IIa or 15 mg/kg/day compound of formula I alone, combination at the same dosage levels
[1] = Example 1, 5 rats per group, 14 days, Dosis mg/kg/day: Cpd IIa 0.1, Cpd I 15, combination 1.5 [sic] + 15
[2] = Example 1, 14 days, Dosis mg/kg/day: Cpd IIa 0.1, Cpd I 15, combination 1.5 [sic] + 15
[3] = Example 1, scores 0 to 4 for 1 eye, 14 days, Dosis mg/kg/day: Cpd IIa 0.1, Cpd I 15, combination 1.5 [sic] + 15
[4] = Example 2, 6 rats per group, 14 days (14×), mg/kg/day: Cpd IIa 0.1, Cpd I 15, combination 15 + 0.1

SMILES: CC[C@@H]1/C=C(\C)C[C@H](C)C[C@H](OC)[C@H]2O[C@@](O)(C(=O)C(=O)N3CCCC[C@H]3C(=O)O[C@H](/C(C)=C/[C@@H]3CC[C@H](Cl)[C@H](OC)C3)[C@H](C)[C@@H](O)CC1=O)[C@H](C)C[C@@H]2OC [Cpd I, 33-epi-33-chloro-FR 520]
- EAU 1st: Day of first signs of EAU (mean±SD) [1]: 11.8 (1.3) day
- EAU 10: Incidence of EAU on day 10 (affected animals/animals per group) [1]: 1/5
- EAU POS: Number of EAU positive rats (affected animals/animals per group until end of the study) [1]: 5/5
- SCORE MAX DAY: day of maximum score [2]: 14 days
- course and intensity of the disease compared with placebo controls (Example 1): not distinctively different from placebo controls
- SCORE MAX SCORE: Maximum score (mean of both eye lesions±SD) [3]: 6.8 (1.3)
- EAU 1st: Day of first signs of EAU (mean±SD) [4]: 11.5 (0.8) day
- EAU 10: Incidence of EAU on day 10 (affected animals/animals per group) [4]: 2/6
- EAU POS: Number of EAU positive rats (affected animals/animals per group until end of the study) [4]: 6/6
- SCORE MAX DAY: day of maximum score [4]: 14 days
- SCORE MAX SCORE: Maximum score (mean of both eye lesions±SD) [4]: 6.0 (2.5)

SMILES: CCCCCCCCc1ccc(CCC(N)(CO)CO)cc1 [Cpd IIa, 2-amino-2[2-(4-octylphenyl)ethyl]propane-1,3-diol hydrochloride]
- EAU 1st: Day of first signs of EAU (mean±SD) [1]: 10.5 (0.6) day
- EAU 10: Incidence of EAU on day 10 (affected animals/animals per group) [1]: 2/5
- EAU POS: Number of EAU positive rats (affected animals/animals per group until end of the study) [1]: 4/4*^)
- SCORE MAX DAY: day of maximum score [2]: 13 days
- course and intensity of the disease compared with placebo controls (Example 1): not distinctively different from placebo controls
- SCORE MAX SCORE: Maximum score (mean of both eye lesions±SD) [3]: 8.0 (0.0)
- EAU 1st: Day of first signs of EAU (mean±SD) [4]: 11.2 (1.0) day
- EAU 10: Incidence of EAU on day 10 (affected animals/animals per group) [4]: 0/6
- EAU POS: Number of EAU positive rats (affected animals/animals per group until end of the study) [4]: 6/6
- SCORE MAX DAY: day of maximum score [4]: 14 days
- SCORE MAX SCORE: Maximum score (mean of both eye lesions±SD) [4]: 8.0 (0.0)
